The source of these data is PubChem BioAssay (NCI).

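Grown in 96-well plates, cells were treated for 48 hours with each compound at five concentrations. Insufficient inhibition: endpoint recorded as highest concentration tested. GI50 = concentration required for 50% inhibition of growth. The concentration for full growth arrest is given as TGI.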 Where a SMILES comes first, the peptide text is derived from it. The star is where a group is joined. Boc = CC(C)(C)OC(=O)*

One assay deals with CAKI-1 renal. Put plainly: NCI anticancer screen, dose series, 48 h.
In the case of `O=C(NCCN1CCOCC1)c1ccc2cc(C(=O)N3CC(CCl)c4ccc([N+](=O)[O-])cc43)[nH]c2c1` (stereo not drawn), the TGI stood at 52.4 µM.

Compound `O=c1c2cc3c(cc2[nH]c2ncccc12)OCO3` displayed a TGI above 10 µM.

Regarding `Cc1csc(-c2cn(C)c3c2C(=O)C(N)=CC3=O)n1`, the TGI was above 64.4 µM.

In turn, `Nc1c(-c2cccc3ccccc23)c2ccc([N+](=O)[O-])cc2c(=O)n1-c1nc2ccccc2s1` yielded a TGI above 31.6 µM.

As for `CC1CC[C@@]2(OC1)OC1C[C@H]3[C@@H]4CC[C@H]5CC(OC6OC(CO)C(OC7OC(CO)C(O)C(O)C7OC7OC(CO)C(O)C(O)C7O)C(O)C6O)CCC5(C)[C@H]4CCC3(C)C1[C@@H]2C` (stereo partly drawn), the TGI came out at 10.6 µM.

Consider `O=c1c2ccccc2nc2[nH][nH]c(=S)n12`, for which the TGI was above 100 µM.

Regarding `CC(C)(C)OC(=O)NCC(=O)NCC(=O)NCC(=O)NCC(=O)O` (Boc-GGGG-OH), the TGI was above 100 µM.

In turn, `COc1ccc(CC(O)CN2CCOCC2)cc1` (stereo not drawn) yielded a TGI above 100 µM.

Regarding `CN(C)CCCN1C(=S)N(CCCN(C)C)c2c3cc(O)ccc3nc3c([N+](=O)[O-])ccc1c23`, the TGI was 15 µM.

For `COc1cc(C2SCC(=O)N2c2ccc(NC(=O)c3ccc(N4C(=O)CSC4c4cc(OC)c(OC)c(OC)c4)cc3)cc2)cc(OC)c1OC` (stereo not drawn), the TGI was above 100 µM.

With `N#C/C(=C\c1cc(Br)c(O)c(Br)c1)c1cccnc1`, the TGI was above 100 µM.

`CN(C)Cc1cc(C(=O)/C=C/c2ccc(O)cc2)cc(CN(C)C)c1O` returned a TGI above 100 µM.

The subject of another assay is EKVX NSCLC. Put plainly: NCI anticancer screen, dose series, 48 h.
Regarding `COc1cc2c(cc1-c1c(C)noc1C)cc(C)c(=O)n2Cc1ccccn1`, the GI50 was 1.67 µM and the TGI was above 100 µM.

With `N#CC(C#N)=CNC(=S)c1ccncc1`, the TGI was above 100 µM.

For the compound `O=c1cc(N=P(c2ccccc2)(c2ccccc2)c2ccccc2)n(-c2ccccc2)c(=O)n1-c1ccccc1`, the TGI was determined as 49.8 µM.

In the case of `O=C(NCCCN(CCCCN(CCCNC(=O)C(F)(F)F)Cc1ccccc1)Cc1ccccc1)C(F)(F)F`, the TGI amounted to 25.3 µM.

Consider `COc1ccc(C2(CC(C)O)SCCCS2)cc1` (stereo not drawn), for which the TGI is above 100 µM.

Take `Clc1ccc(-c2nn3c(-c4ccncc4)nnc3s2)cc1`: the TGI was above 100 µM.

As to `Cc1ccccc1C(O)(c1nccn1C)c1nccn1C`, the TGI was above 100 µM.

Consider `Oc1ccccc1/C=N/c1nc2cc3sc(/N=C/c4ccccc4O)nc3cc2s1`, for which the TGI is above 100 µM.

In turn, `CCN(CC)CCOc1ccc(N2C(=O)c3cc(OC)c(OC)cc3C2=O)cc1` showed a TGI above 100 µM.

In the case of `CCOC(=N)n1c(=O)n(C2=NCCN2)c2ccccc21`, the TGI is above 100 µM.

Compound `O=C(NCCN1CCOCC1)c1ccc2cc(C(=O)N3CC(CCl)c4ccc([N+](=O)[O-])cc43)[nH]c2c1` (stereo not drawn) had a TGI of 86.3 µM.

In the case of `O=c1c2cc3c(cc2[nH]c2ncccc12)OCO3`, the TGI is above 10 µM.

`Cc1csc(-c2cn(C)c3c2C(=O)C(N)=CC3=O)n1` registered a TGI above 100 µM.

As to `Nc1c(-c2cccc3ccccc23)c2ccc([N+](=O)[O-])cc2c(=O)n1-c1nc2ccccc2s1`, the TGI came out at 17.4 µM.

Consider `CC1CC[C@@]2(OC1)OC1C[C@H]3[C@@H]4CC[C@H]5CC(OC6OC(CO)C(OC7OC(CO)C(O)C(O)C7OC7OC(CO)C(O)C(O)C7O)C(O)C6O)CCC5(C)[C@H]4CCC3(C)C1[C@@H]2C` (stereo partly drawn), for which the TGI came to 2.21 µM.

Consider `O=c1c2ccccc2nc2[nH][nH]c(=S)n12`, for which the TGI was above 100 µM.

`CC(C)(C)OC(=O)NCC(=O)NCC(=O)NCC(=O)NCC(=O)O` (Boc-GGGG-OH) registered a TGI above 100 µM.

Regarding `COc1ccc(CC(O)CN2CCOCC2)cc1` (stereo not drawn), the TGI is above 100 µM.

Compound `CN(C)CCCN1C(=S)N(CCCN(C)C)c2c3cc(O)ccc3nc3c([N+](=O)[O-])ccc1c23` returned a TGI of 16.2 µM.

`COc1cc(C2SCC(=O)N2c2ccc(NC(=O)c3ccc(N4C(=O)CSC4c4cc(OC)c(OC)c(OC)c4)cc3)cc2)cc(OC)c1OC` (stereo not drawn) yielded a TGI above 100 µM.

Compound `N#C/C(=C\c1cc(Br)c(O)c(Br)c1)c1cccnc1` yielded a TGI of 53.3 µM.

For the compound `CN(C)Cc1cc(C(=O)/C=C/c2ccc(O)cc2)cc(CN(C)C)c1O`, the TGI is above 100 µM.

The subject of another assay is HCT-116 colon. Nature of the assay: NCI anticancer screen, dose series, 48 h.
Consider `COc1cc2c(cc1-c1c(C)noc1C)cc(C)c(=O)n2Cc1ccccn1`, for which the GI50 was 1.91 µM and the TGI was above 100 µM.

Compound `N#CC(C#N)=CNC(=S)c1ccncc1` had a TGI above 100 µM.

Turning to `O=c1cc(N=P(c2ccccc2)(c2ccccc2)c2ccccc2)n(-c2ccccc2)c(=O)n1-c1ccccc1`, the TGI was 42.5 µM.

`O=C(NCCCN(CCCCN(CCCNC(=O)C(F)(F)F)Cc1ccccc1)Cc1ccccc1)C(F)(F)F`: the TGI came to 23.6 µM.

In turn, `COc1ccc(C2(CC(C)O)SCCCS2)cc1` (stereo not drawn) returned a TGI above 100 µM.

Compound `Clc1ccc(-c2nn3c(-c4ccncc4)nnc3s2)cc1` returned a TGI above 100 µM.

The compound `Cc1ccccc1C(O)(c1nccn1C)c1nccn1C` registered a TGI above 100 µM.

Regarding `Oc1ccccc1/C=N/c1nc2cc3sc(/N=C/c4ccccc4O)nc3cc2s1`, the TGI is above 100 µM.

Consider `CCN(CC)CCOc1ccc(N2C(=O)c3cc(OC)c(OC)cc3C2=O)cc1`, for which the TGI is above 100 µM.

`CCOC(=N)n1c(=O)n(C2=NCCN2)c2ccccc21` came in with a TGI above 100 µM.

`O=C(NCCN1CCOCC1)c1ccc2cc(C(=O)N3CC(CCl)c4ccc([N+](=O)[O-])cc43)[nH]c2c1` (stereo not drawn): the TGI is above 100 µM.

`O=c1c2cc3c(cc2[nH]c2ncccc12)OCO3` returned a TGI above 10 µM.

`Cc1csc(-c2cn(C)c3c2C(=O)C(N)=CC3=O)n1` had a TGI above 100 µM.

`Nc1c(-c2cccc3ccccc23)c2ccc([N+](=O)[O-])cc2c(=O)n1-c1nc2ccccc2s1` had a TGI above 40.2 µM.

`CC1CC[C@@]2(OC1)OC1C[C@H]3[C@@H]4CC[C@H]5CC(OC6OC(CO)C(OC7OC(CO)C(O)C(O)C7OC7OC(CO)C(O)C(O)C7O)C(O)C6O)CCC5(C)[C@H]4CCC3(C)C1[C@@H]2C` (stereo partly drawn) gave a TGI of 7.34 µM.

The compound `O=c1c2ccccc2nc2[nH][nH]c(=S)n12` had a TGI above 100 µM.

Consider `CC(C)(C)OC(=O)NCC(=O)NCC(=O)NCC(=O)NCC(=O)O` (Boc-GGGG-OH), for which the TGI was above 100 µM.

Turning to `COc1ccc(CC(O)CN2CCOCC2)cc1` (stereo not drawn), the TGI was above 100 µM.

With `CN(C)CCCN1C(=S)N(CCCN(C)C)c2c3cc(O)ccc3nc3c([N+](=O)[O-])ccc1c23`, the TGI came out at 6.07 µM.

With `COc1cc(C2SCC(=O)N2c2ccc(NC(=O)c3ccc(N4C(=O)CSC4c4cc(OC)c(OC)c(OC)c4)cc3)cc2)cc(OC)c1OC` (stereo not drawn), the TGI was above 100 µM.

For the compound `N#C/C(=C\c1cc(Br)c(O)c(Br)c1)c1cccnc1`, the TGI is above 100 µM.

`CN(C)Cc1cc(C(=O)/C=C/c2ccc(O)cc2)cc(CN(C)C)c1O` displayed a TGI above 100 µM.
